Measurements reported in patent US6472418B1, “Non-peptide NK1 receptors antagonists” (Warner-Lambert Company, priority 1998, dated 2002).

Biological target: T1, Human NK1 Receptor (Homo sapiens, UniProt P25103)
T1 construct: endogenous in cells; host or cells: Human lymphoma IM9 cells (whole cells)
Experiment: In Vitro Human NK1 Receptor Binding Assay ([125I]Bolton-Hunter substance P displacement, IM9 cells)
Conditions: Human lymphoma IM9 cells, [125I]Bolton-Hunter substance P; Table 3, array-synthesis products; read-out: IC50 (nM) hNK1
Method: They have been evaluated in an NK1-receptor binding assay which is described below.
Human lymphoma IM9 cells were grown in RPMI 1640 culture medium supplemented with 10% fetal calf serum and 2 mM glutamine and maintained under an atmosphere of 5% CO2. Cells were passaged every 3-4 days by reseeding to a concentration of 4-8×10^6/40 ml per 175 cm^2 flask. Cells were harvested for experiments by centrifugation at 1000 g for 3 min. Pelleted cells were washed once by resuspension into assay buffer (50 mM Tris HCl pH 7.4, 3 mM MnCl2, 0.02% BSA, […] bacitracin, […] chymostatin, 2 mM phosphoramidon, […] leupeptin) and repeating the centrifugation step before resuspending at a concentration of 2.5×10^6 cells/mL assay buffer. Cells ([…]) were incubated with [^125I]Bolton-Hunter substance P (0.05-0.1 nM) in the presence and absence of varying concentrations of test compounds for 50 min at 21° C. Non-specific binding (10% of the total binding observed under these conditions) was defined by […] [Sar^9, Met(02)^11] substance P. Reactions were terminated by rapid filtration under vacuum onto GF\C filters presoaked in 0.2% PEI for 1-2 h, using a Brandel cell harvester. Filters were washed with 6×1 ml ice-cold Tris HCl (50 mM, pH 7.4) and radioactivity bound determined using a gamma couter. Results were analyzed using iterative curve fitting procedures in RS1 or Graphpad Inplot.

T1 sequence (P25103 whole entry): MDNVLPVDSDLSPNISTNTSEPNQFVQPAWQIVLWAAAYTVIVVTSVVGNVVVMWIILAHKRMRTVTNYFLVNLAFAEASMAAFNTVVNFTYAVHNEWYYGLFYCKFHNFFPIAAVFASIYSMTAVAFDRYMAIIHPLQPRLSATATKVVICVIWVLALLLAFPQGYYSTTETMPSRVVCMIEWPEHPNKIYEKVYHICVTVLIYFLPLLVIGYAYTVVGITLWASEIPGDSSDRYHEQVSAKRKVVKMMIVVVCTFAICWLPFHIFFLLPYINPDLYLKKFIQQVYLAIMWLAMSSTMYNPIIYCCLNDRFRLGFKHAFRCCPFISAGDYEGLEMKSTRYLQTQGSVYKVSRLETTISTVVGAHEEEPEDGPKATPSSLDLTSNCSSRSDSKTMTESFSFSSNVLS

| IC50 [nM] | Compound |
| --- | --- |
| 1340 | O=C(NCCSCc1ccccc1)C(Cc1c[nH]c2ccccc12)NCc1cc2ccccc2o1 (stereo not shown) [Example 296, 2-[(Benzofuran-2-ylmethyl)-amino]-N-(2-benzylsulfanyl-ethyl)-3-(1H-indol-3-yl)-propionamide] |
| 9 | O=C(NCc1cccc(Cl)c1)C(Cc1c[nH]c2ccccc12)NCc1cc2ccccc2o1 (stereo not shown) [Example 263, 2-[(Benzofuran-2-ylmethyl)-amino]-N-(3-chloro-benzyl)-3-(1H-indol-3-yl)-propionamide] |
| > 10000 | O=C(NC1(CO)CCCC1)C(Cc1c[nH]c2ccccc12)NCc1cc2ccccc2o1 (stereo not shown) [Example 211, 2-[(Benzofuran-2-ylmethyl)-amino]-N-(1-hydroxymethylcyclopentyl)-3-(1H-indol-3-yl)-propionamide] |

Same assay, conditions: Table 4; [125I]Bolton-Hunter substance P displacement, human IM9 cells; read-out: IC50 (nM) hNK1

| Compound | IC50 [nM] |
| --- | --- |
| CC(NC(=O)C(C)(Cc1c[nH]c2ccccc12)NCc1ccccc1Sc1ccc(Cl)cc1)c1ccccc1 (stereo not shown) [compound 350, 2-[2-(4-Chloro-phenylsulfanyl)-benzylamino]-3-(1H-indol-3-yl)-2-methyl-N-(1-phenyl-ethyl)-propionamide] | > 10000 |
| Toluene-4-sulfonic acid 3-{[2-(1H-indol-3-yl)-1-methyl-1-(1-phenyl-ethylcarbamoyl)-ethylamino]-methyl}-phenyl ester [compound 342] | 5090 |

Same assay, conditions: Table 5; [125I]Bolton-Hunter substance P displacement, human IM9 cells; read-out: IC50 (nM) hNK1

| IC50 [nM] | Compound |
| --- | --- |
| 846 | CC(NC(=O)C(Cc1c[nH]c2ccccc12)NCc1ccc2c(c1)Cc1ccccc1-2)c1ccccc1 (stereo not shown) [compound 391] |
| 2350 | CC(NC(=O)C(Cc1c[nH]c2ccccc12)NCc1ccc(Oc2ccccc2)cc1)c1ccccc1 (stereo not shown) [compound 384] |
| 1460 | CC(NC(=O)C(Cc1c[nH]c2ccccc12)NCc1ccc(-c2ccccc2)cc1)c1ccccc1 (stereo not shown) [compound 385] |

Same assay, conditions: human NK1 receptor, IM9 cells, [125I]Bolton-Hunter substance P; read-out: IC50 (nM) hNK1

| IC50 [nM] | Compound |
| --- | --- |
| > 10000 | CC(Cc1c[nH]c2ccccc12)(NCc1cc2ccccc2o1)C(=O)NCc1ccc(O)c(O)c1 (stereo not shown) [compound 182, 2-[(Benzofuran-2-ylmethyl)-amino]-N-(3,4-dihydroxy-benzyl)-3-(1H-indol-3-yl)-2-methyl-propionamide] |
| 1620 | CC(NC(=O)C(C)(Cc1c[nH]c2ccccc12)NCc1cc2ccccc2o1)c1ccccc1N (stereo not shown) [compound 36, N-[1-(2-Amino-phenyl)-ethyl]-2-[(benzofuran-2-ylmethyl)-amino]-3-(1H-indol-3-yl)-2-methyl-propionamide] |
| 29 | CC(Cc1c[nH]c2ccccc12)(NCc1cc2ccccc2o1)C(=O)NCc1ccc(F)c(F)c1 (stereo not shown) [compound 167, 2-[(Benzofuran-2-ylmethyl)-amino]-N-(3,4-difluoro-benzyl)-3-(1H-indol-3-yl)-2-methyl-propionamide] |
| 19 | CC(NC(=O)C(C)(Cc1c[nH]c2ccccc12)NCc1cc2ccccc2o1)c1ccsc1 (stereo not shown) [compound 41, 2-[(Benzofuran-2-ylmethyl)-amino]-3-(1H-indol-3-yl)-2-methyl-N-(1-thiophen-3-yl-ethyl)-propionamide] |
| 654 | CC(Cc1c[nH]c2ccccc12)(NCc1cc2ccccc2o1)C(=O)NCCn1cccc1 (stereo not shown) [compound 121, 2-[(Benzofuran-2-ylmethyl)-amino]-3-(1H-indol-3-yl)-2-methyl-N-(2-pyrrol-1-yl-ethyl)-propionamide] |
| 3440 | CC(Cc1c[nH]c2ccccc12)(NCc1cc2ccccc2o1)C(=O)NCc1ccc(OC(F)(F)F)cc1 (stereo not shown) [compound 66, 2-[(Benzofuran-2-ylmethyl)-amino]-3-(1H-indol-3-yl)-2-methyl-N-(4-trifluoromethoxy-benzyl)-propionamide] |
| 7 | CC(Cc1c[nH]c2ccccc12)(NCc1cc2ccccc2o1)C(=O)NC(CO)c1ccccc1 (stereo not shown) [compound 29, 2-[(Benzofuran-2-ylmethyl)-amino]-N-(2-hydroxy-1-phenyl-ethyl)-3-(1H-indol-3-yl)-2-methyl-propionamide] |
| 2290 | CC(C)NC(=O)C(C)(Cc1c[nH]c2ccccc12)NCc1cc2ccccc2o1 (stereo not shown) [compound 92, 2-[(Benzofuran-2-ylmethyl)-amino]-3-(1H-indol-3-yl)-N-isopropyl-2-methyl-propionamide] |
